No end group written: not given here.
How the values were obtained:
PSA [1] = target: T1, PSA (Homo sapiens, UniProt P07288); assay: PSA activity assay with Pro-Phe-Arg-MCA substrate, residual activity in coexistence of peptides; format: biochemical; conditions: enzyme added PSA, 100% without any Peptide
T1 construct: Using PSA as purified from human urine or seminal plasma; from tissue; host or cells: human urine or seminal plasma
Experimental: Then, investigation was conducted into whether or not these peptides act to inhibit the PSA activity.
While using […] of 100 μM or 10 μM Pro-Phe-Arg-MCA (supplied by Peptide Research. Institute of Japan) as a substrate, 0.1 ml of 100 μM of each of Peptides 1 to 5 was mixed with the substrate and 0.7 ml of 0.1M Tris-hydrochloride buffer (pH 8.0) to allow the reaction to proceed at 37° C. for 5 min, followed by addition of 0.1 ml of 0.12 mg/ml PSA solution. The reaction solution was subjected to time-course measurement of fluorescence intensity (Ex380 nm, Em460nm) at 37° C. for 3 min, and the inhibitory activity value was determined from a slope of the straight line. […] In the above experiments, Pro-Phe-Arg-MCA, Peptides 1 to 5 PSA and kallikrein were used after being dissolved in 0.1M Tris-hydrochloride buffer (pH 8.0).
These findings are in good agreement with the fact that PSA a protease belonging to the kallikrein family .

PSA [2] = target: T1, PSA; assay: Degradation of r-IGFBP3 by PSA, SDS electrophoresis and Western blotting with densitometry; format: biochemical; conditions: relative to r-IGFBP3 alone (100.0); r-IGFBP3 + PSA 50.0; 4 nmol Peptide 4
Experimental: And PSA degrades r-IGFB3 into fragments, whereby its degradation process can be confirmed by means of SDS-electrophoresis and Western blotting.
A specimen was prepared by dissolving 0.57 μg of PSA and 2.0 μg of r-IGFBP3 (manufactured by Upstate Co. of USA) in 0.1M Tris-hydrochloride buffer (pH 8.0), followed by reaction at 37° C. for 16 hrs, while another specimen was prepared by dissolving 0.57 μg of PSA, 2.0 μg of r-TGFBP3 (manufactured by Upstate Co. of USA) and 4 nmol of Peptide 4 in 0.1M Tris-hydrochloride buffer (pH 8.0), followed by reaction at 37° C. for 16 hrs. Each of the specimens was subjected to a 4 to 20% gradient gel to conduct SDS electrophoresis under non-reduction in the conditions described by Laemmli et al. (Iqature, 227: 680-685, 1970). After electrophoresis, separated proteins were transferred to a nitrocellulose membrane to carry out Western blotting using anti-IGFBP3 antibody (produced by Biogenesis Co. of USA) as a primary antibody and anti-rabbit antibody (produced by Promega Co. of USA) labeled with horseradish peroxidase (HRP) as a secondary antibody. The HRP activity was detected by chemiluminescence (Renaissance Western Blot Chemiluminescence Reagent, NEN™ produced by Life Science Products Co. of USA), and the protein bands as detected were quantitatively determined by use of a densitometer.

[3] = column A, Substrate:Peptide molar ratio 1:1
[4] = column B, Substrate:Peptide molar ratio 1:10

T1 sequence (P07288 25-261): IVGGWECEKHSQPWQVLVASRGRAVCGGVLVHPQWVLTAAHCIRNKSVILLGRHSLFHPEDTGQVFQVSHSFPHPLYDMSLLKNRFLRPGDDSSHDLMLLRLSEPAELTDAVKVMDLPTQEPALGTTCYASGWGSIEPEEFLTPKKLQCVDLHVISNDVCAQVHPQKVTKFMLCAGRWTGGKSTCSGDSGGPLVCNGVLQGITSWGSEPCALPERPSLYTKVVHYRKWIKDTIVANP

Row | Sequence | Residual activity rate (%) after addition of Peptides (PSA [1]; [3]) | Residual activity rate (%) after addition of Peptides (PSA [1]; [4]) | Residual rate % of the 50 kDa band (PSA [2])
1 | LNHLKFLNVL [Peptide 3, Leu(194)-Asn-His-Leu-Lys-Phe-Leu-Asn-val-Leu(203)] | 83.5% | 73.3% | 
2 | VNASAVSRLRAYLLP [Peptide 1, val(88)-Asn-Ala-Ser-Ala-Val-Ser-Arg-Leu-Arg-Ala-Tyr-Leu-Leu-Pro(102)] | 107.4% | 100.7% | 
3 | VSSTHRVSDPKF [Peptide 2, Val(127)-Ser-Ser-Thr-His-Arg-Val-Ser-Asp-Pro-Lys-Phe(138)] | 87.5% | 104.8% | 

Next, values leading:

Row | Residual activity rate (%) after addition of Peptides (PSA [1]; [3]) | Residual activity rate (%) after addition of Peptides (PSA [1]; [4]) | Residual rate % of the 50 kDa band (PSA [2]) | Sequence
4 | 66.5% | 46.6% | 65.1% | GFYKKKQSR [Peptide 4, Gly(217)-Phe-Tyr-Lys-Lys-Lys-Gln-Ser-Arg(225)]
5 | 75.1% | 84.8% |  | PSKGRKRGFM [Peptide 5, Pro(226)-Ser-Lys-Gly-Arg-Lys-Arg-Gly-Phe-Met(235)]

From patent publication US6284734A, “Inhibitors against prostate-specific antigen” (JCR Pharmaceuticals Co., Ltd., priority 1997, dated 2001)
